From publication PMC6844378, “Structure activity relationship studies on Amb639752: toward the identification of a common pharmacophoric structure for DGKα inhibitors” (Journal of Enzyme Inhibition and Medicinal Chemistry, 2019)

Experiments:
DGKθ = molecular target: T1, DGKθ (Homo sapiens, UniProt P52824); assay: Isoform specificity, DGKθ homogenates of transfected 293T cells; assay type: biochemical; settings: 100 µM; 293T homogenates
T1 construct: expressed in transfected cells; host or cells: 293T cells, transient transfection (Lipofectamine 3000), crude homogenate
T1 sequence (P52824 1-942): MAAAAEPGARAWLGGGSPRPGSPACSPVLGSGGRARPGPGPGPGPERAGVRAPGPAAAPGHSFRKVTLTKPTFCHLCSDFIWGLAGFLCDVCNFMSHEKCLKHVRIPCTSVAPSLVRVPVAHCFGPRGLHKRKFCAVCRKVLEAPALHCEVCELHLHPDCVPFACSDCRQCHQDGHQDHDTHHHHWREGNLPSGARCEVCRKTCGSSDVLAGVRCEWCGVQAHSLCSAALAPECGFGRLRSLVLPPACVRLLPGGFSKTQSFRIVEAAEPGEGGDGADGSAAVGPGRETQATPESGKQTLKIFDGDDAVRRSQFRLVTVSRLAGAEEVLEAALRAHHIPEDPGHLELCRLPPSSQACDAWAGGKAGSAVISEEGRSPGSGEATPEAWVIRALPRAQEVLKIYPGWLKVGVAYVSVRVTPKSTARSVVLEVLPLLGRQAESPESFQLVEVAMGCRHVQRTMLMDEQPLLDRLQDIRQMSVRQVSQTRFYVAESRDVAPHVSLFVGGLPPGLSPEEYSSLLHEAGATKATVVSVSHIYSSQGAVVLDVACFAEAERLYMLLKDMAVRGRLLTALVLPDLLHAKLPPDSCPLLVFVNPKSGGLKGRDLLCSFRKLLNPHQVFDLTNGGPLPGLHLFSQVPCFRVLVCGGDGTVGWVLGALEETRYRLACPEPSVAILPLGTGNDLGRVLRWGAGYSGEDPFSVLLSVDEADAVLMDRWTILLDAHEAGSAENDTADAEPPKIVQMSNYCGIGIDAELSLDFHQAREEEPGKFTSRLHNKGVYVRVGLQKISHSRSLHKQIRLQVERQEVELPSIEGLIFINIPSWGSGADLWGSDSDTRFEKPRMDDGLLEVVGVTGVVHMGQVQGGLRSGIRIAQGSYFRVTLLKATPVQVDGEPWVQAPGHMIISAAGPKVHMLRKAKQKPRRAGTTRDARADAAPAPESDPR
Procedure: (§1) 293T cells were transiently transfected with indicated DGK isoform plasmid DNA using Lipofectamine 3000, Invitrogen (Carlsbad, CA). Forty eight hours after transfection, cells were harvested and homogenised with a 29 G-needle using 500 µL of homogenate buffer for each dish and immediately stored in aliquots at –80 °C. Cells transfected with empty vector were used as controls, overexpressed DGK has an activity >50 folds the endogenous.
(§2) Essentionally, the same procedure was followed as reported previously in Velnati et al.[9] In brief, DGK activity was assayed by measuring initial velocities (5 min at 27 °C) in presence of saturating substrate concentrations. Reaction conditions: 0.9 µg/µL 1,2-dioleoyl-sn-glycerol, 5 mM ATP, 0.01 µCi/µL [γ^32P]-ATP, 1 mM sodium orthovanadate, 10 mM MgCl2, 1.2 mM EGTA in 7.5 mM Hepes pH 8[12]. Reaction mixture is assembled mixing enzyme (24.5 µL of homogenate), 100× inhibitor or DMSO (0.5 µL), 5× ATP solution (10 µL of 25 mM ATP, 0.05 µCi/µL [γ^32P]-ATP (Perkin-Elmer, Milan, Italy), 5 mM sodium orthovanadate, 50 mM MgCl2), and 3.3× DAG solution (15 µL of 3 µg/µL 1,2-dioleoyl-sn-glycerol resuspended by sonication in 4 mM EGTA in 25 mM Hepes pH 8). […] TLC was run 10 cm and dried before radioactive signals were detected by GS-250 molecular imager and was quantified by quantity one (Bio-Rad, Hercules, CA) software assuring the absence of saturated spots. […]

MCF7 cells = assay: Migration assay (serum induced wound healing); assay type: cell-based; settings: 10 µM, 15 h, in presence of serum, vs vehicle (DMSO)
Procedure: Michigan Cancer Foundation 7 (MCF7) cells were cultured in DMEM with 10% FBS + 1% penicillin/streptomycin and cultures were maintained by splitting them for every 2–3 days using trypsin–EDTA 0.25%.
Cell migration assays were performed using the Culture-Insert 2 well in µ-Dish (ibidi GmbH, Martinsried, Germany).
Briefly, 25,000 MCF7 cells were plated in each well and cultured for 24 h. The day after, the culture insert was removed and the cells were washed with PBS before treating them with respective DGKα inhibitors (10 µM) or DMSO for 15 h in complete medium (DMEM 10% FBS + 1% penicillin/streptomycin), while medium without FBS was used as a negative control for migration.
Phase-contrast pictures were taken immediately after treatment (0 h) and after 15 h under 5× magnification.
Finally, wound areas were determined using ImageJ software (NIH, , Bethesda, MD). Wound reduction was calculated by using the following formula: (wound area at 15 h/wound at 0 h)×100, the values obtained were expressed as the percentage of wound area compared to the initial area.
To evaluate if our newly synthetised DGKα inhibitors were effective in impairing cancer cell migration, we measured serum induced wound healing in MCF7 breast cancer cells in presence of 10 µM inhibitor. […]
Figure 10. […] Results are expressed as the percentage of wound area compared to the initial area. […]

DGKα = DGKα (Homo sapiens, UniProt P23743); assay: Isoform specificity, DGKα homogenates of transfected 293T cells; assay type: biochemical; settings: 100 µM; 293T homogenates
DGKα, sequence (P23743 whole entry, canonical isoform): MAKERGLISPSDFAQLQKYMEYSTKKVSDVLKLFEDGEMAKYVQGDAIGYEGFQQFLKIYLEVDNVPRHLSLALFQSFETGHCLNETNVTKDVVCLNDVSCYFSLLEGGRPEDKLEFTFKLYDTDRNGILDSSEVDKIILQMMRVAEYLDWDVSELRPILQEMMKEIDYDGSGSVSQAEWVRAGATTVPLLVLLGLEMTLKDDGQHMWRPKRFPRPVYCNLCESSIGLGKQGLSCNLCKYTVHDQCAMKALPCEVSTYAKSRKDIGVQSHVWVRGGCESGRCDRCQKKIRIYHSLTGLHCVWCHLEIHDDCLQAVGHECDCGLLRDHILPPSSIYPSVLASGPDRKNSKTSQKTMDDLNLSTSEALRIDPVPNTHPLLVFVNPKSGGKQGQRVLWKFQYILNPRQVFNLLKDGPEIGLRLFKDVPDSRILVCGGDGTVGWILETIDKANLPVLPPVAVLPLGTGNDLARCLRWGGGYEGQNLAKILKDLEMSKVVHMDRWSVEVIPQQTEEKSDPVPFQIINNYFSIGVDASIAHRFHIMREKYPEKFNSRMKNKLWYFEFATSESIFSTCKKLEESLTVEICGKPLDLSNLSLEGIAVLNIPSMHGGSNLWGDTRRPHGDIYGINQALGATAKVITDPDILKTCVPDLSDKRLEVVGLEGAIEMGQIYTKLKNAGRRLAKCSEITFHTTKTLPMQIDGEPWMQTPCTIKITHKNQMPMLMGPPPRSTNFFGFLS
Procedure: as §1, §2

Cc1ccc(C(=O)N2CCN(CC(=O)c3c(C)[nH]c4cc(C)ccc34)CC2)cc1 [Compound 20, 1-(2,6-Dimethyl-1H-indol-3-yl)-2-(4-(4-methylbenzoyl)piperazin-1-yl)ethan-1-one]
effect on DGKθ activity (DGKθ): activator
cell migration (wound closure) (MCF7 cells): reduce the migration

Cc1ccc2c(C(=O)CN3CCN(C(=O)c4ccco4)CC3)c(C)[nH]c2c1 [Amb639752]
inhibition of DGKα activity (DGKα): completely inhibit
effect on DGKθ activity (DGKθ): do not have significant effects

Cc1ccc2c(C(=O)CN3CCN(C(=O)c4ccc(Cl)cc4)CC3)c(C)[nH]c2c1 [Compound 11, 2-(4-(4-Chlorobenzoyl)piperazin-1-yl)-1-(2,6-dimethyl-1H-indol-3-yl)ethan-1-one]
cell migration (wound closure) (MCF7 cells): reduce the migration
